From patent US9776992B2, “1-oxo-1,2-dihydroisoquinolin-7-yl-(5-substituted-thiophen-2-yl)-sulfonamide compounds, formulations containing those compounds, and their use as AICARFT inhibitors in the treatment of cancers” (Eli Lilly and Company, priority 2014, dated 2017)

What was measured:
panel of cell lines = test: In vitro proliferation assay, cell line panel (CellTiter-Glo); type: cell-based; conditions: standard media conditions; summary of Table 17
Protocol: (§1) Cells are grown using the cell banks recommended culture conditions on the date of sample acquisition. Prepare complete medium adding appropriate horse serum (ex. Invitrogen, Cat. No. 16050130) or FBS (ex. Invitrogen, Cat. No. 10099-141 or Hyclone Cat. No. CH30160.03) and additives.
(§2) For attached cell lines, remove and discard culture medium using a vacuum pump. […] Add 3.0 mL of Trypsin-EDTA solution to flask and observe cells under an inverted microscope until cell layer is dispersed. Add 8.0 mL of complete growth medium and aspirate cells by gently pipetting.
(§3) For suspension cell lines, transfer the cell suspension to a centrifuge tube and centrifuge at 800-1000 rpm for 3-5 minutes. Discard the supernatant using a vacuum pump. Add the appropriate volume of complete medium. Suspend the cell pellet by gently pipetting. Count the cell numbers and adjust cells to the appropriate seeding density. […]
(§4) Determine the concentrations to be tested and dilute the compounds to 200×final concentration in low folate media. […] Incubate plates at 37° C. for approximately 2 doubling times as determined for each cell line. […] Paste the clear bottom with white back seal and record luminescence with Flexstation3 (Molecular Devices). The settings should be: Luminescence, integration time 500 ms. […]

[1] = system: large cell lung cancer NCI-H460; test: In vitro proliferation assay, NCI-H460; type: cell-based; conditions: Homo sapiens; NCI-H460, standard media conditions
Protocol: as §1, §2, §3, §4

[2] = system: colorectal carcinoma HCT-116; test: In vitro proliferation assay, HCT-116; type: cell-based; conditions: Homo sapiens; HCT-116, standard media conditions
Protocol: as §1, §2, §3, §4

AICARFT = test: Pharmacodynamic response in beagle dogs (plasma AICAr); type: in vivo, beagle dog; conditions: for Mean Plasma AICAr: beagle dogs, orally, time of collection post dose 8; for in vivo inhibition of AICARFT (in words): dogs, summary of Table 20
Protocol: The in vivo effects of AICARFT inhibition on the circulating concentration of AICAr is determined by liquid chromatography-mass spectrometry (LC-MS). Standard curves containing AICAr at concentrations of 1 ng/mL-2000 ng/mL are prepared in 40 mM ammonium acetate, pH 4. Plasma samples (75 μL) or standards (75 μL) are combined with 300 μL of an internal standard solution containing 13C5-AICAr (20 ng/mL) and formic acid (1%) in ACN. The samples are vortex mixed for 5 minutes and passed through a Phenomenex Phree 96-well phospholipid removal SPE plate. The eluents are collected in a 96-well plate and dried under heated nitrogen at 50° C. Each sample is reconstituted in 50 μL of 40 mM ammonium acetate, pH 4. The plates are sealed and vortexed for 5 minutes prior to analysis. The LC-MS method utilized a Shimadzu Prominence 20A HPLC system connected to an AB Sciex 5500™ or an AB Sciex 6500™ triple quadrupole mass spectrometer running Analyst® software. Extracted samples are separated using two Thermo Hypercarb™ Javelin guard columns (2.1×20 mm, 5 μm) connected in series with an injection volume of 15 μL and a flow rate of 1 mL/minute. Mobile phase A is a 95:5 mixture of 50 mM ammonium formate, pH 4 and ACN. Mobile phase B is a 70:30 mixture of ACN and MeOH spiked with 0.3% formic acid and 2% concentrated ammonium hydroxide solution (v/v). For mouse plasma samples the following gradient is used: 0 minutes, 0% B; 0.25 minutes, 0% B; 2.00 minutes, 25% B; 2.01 minutes, 95% B; 3.50 minutes, 95% B; 3.51 minutes, 0% B; 4.50 minutes, stop. For dog plasma samples the following gradient is used to remove endogenous interferences: 0 minutes, 0% B; 0.25 minutes, 0% B; 5.99 minutes, 20% B; 6.00 minutes, 95% B; 8.00 minutes, 95% B; 8.01 minutes, 0% B; 10.00 minutes, stop. The mass spectrometer is operated in positive ion TurboIonSpray® multiple reaction monitoring mode with a source temperature of 700° C. The precursor and fragment ions for each analyte are: AICAr (259→127) and 13C5-AICAr (264→127). Calibration curves are constructed by plotting analyte concentrations vs. analyte/internal standard peak area ratios and performing a linear fit of the data using a 1/concentration weighting with AB Sciex MultiQuant™ 2.1 software.
Beagle dogs, non-human primates and human are low serum folate species, whereas rodents are high serum folate (C P Leamon et al. (2008) JPET 327:918-925). The pharmacodynamics response in dogs treated with an AICARFT inhibitor will be more representative of the expected pharmacodynamics response in patients treated with an AICARFT inhibitor.
Animals are returned to the colony for re-use after completion of the experiment.

[3] = system: large cell lung cancer NCI-H460; test: Low folate in vitro proliferation assay, NCI-H460; type: cell-based; conditions: Homo sapiens, 168 h; NCI-H460, low folate media, 7 days
Excerpt: Allow cells to attach overnight. […] Final concentration of compounds will be 1×. […] Dose cells with compounds of interest for 7 days. […] Determine % inhibition for each sample (see Table 18).

Row | SMILES | inhibition of proliferation of cancer cells (in words) (panel of cell lines) | IC50 [1] [nM] | IC50 [2] [nM] | Mean Plasma AICAr (AICARFT; 10 mg/kg QD) [nM] | Mean Plasma AICAr (AICARFT; 30 mg/kg QD) [nM] | Mean Plasma AICAr (AICARFT; 100 mg/kg QD) [nM] | Mean Plasma AICAr (AICARFT; 300 mg/kg QD) [nM] | in vivo inhibition of AICARFT (in words) (AICARFT) | IC50 [3] [nM]
1 | O=c1[nH]ccc2cc(F)c(NS(=O)(=O)c3ccc(N4C[C@@H](O)C(F)(F)C4)s3)cc12 [Example 41, 5-[(4R)-3,3-difluoro-4-hydroxypyrrolidin-1-yl]-N-(6-fluoro-1-oxo-1,2-dihydroisoquinolin-7-yl)thiophene-2-sulfonamide] | inhibit proliferation of cancer cells | 1880 | 10800 | 158 | 362 | 1534 | 1373 | demonstrate in vivo inhibition of AICARFT | 
2 | O=c1[nH]ccc2cc(F)c(NS(=O)(=O)c3ccc(N4C[C@@H](O)[C@@H](F)C4)s3)cc12 (single isomer, unassigned) [Example 33] |  |  |  | 98 | 213 | 726 | 1150 | demonstrate in vivo inhibition of AICARFT | 
3 | O=c1[nH]ccc2cc(F)c(NS(=O)(=O)c3ccc(N4CC[C@@H](O)C4)s3)cc12 [Example 1, N-(6-Fluoro-1-oxo-1,2-dihydroisoquinolin-7-yl)-5-[(3R)-3-hydroxypyrrolidin-1-yl]thiophene-2-sulfonamide] | inhibit proliferation of cancer cells | 610 | 8100 | 138 | 254 | 652 | 931 | demonstrate in vivo inhibition of AICARFT | 20
